Source: PubChem BioAssay AID2060599 (Molecular Pharmacology Branch, DTP, NCI, 2025)

Test system: 817829-284-R-J1-PDC complex spheroids, viability
Assay: Anticancer human tumor 817829-284-R-J1-PDC patient-derived colon adenocarcinoma cell line growth inhibition [CLK]
Settings: for viability, T/C: stronger effect = lower value
Method in brief: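 Patient-derived tumor cells grown as complex spheroids with HUVEC endothelial cells and mesenchymal stem cells, treated with drug combinations. Concentrations descend in half-log steps from near clinical Cmax, or from 10 microM if Cmax unknown.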

[1] = curve of first compound, second compound 0.0316 µM
[2] = curve of first compound, second compound 0.1 µM
[3] = curve of first compound, second compound 0.316 µM
[4] = curve of first compound, second compound 1 µM
[5] = curve of first compound, second compound 3.16 µM
[6] = curve of first compound, second compound 10 µM
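Note: spheroids exposed to the agents for seven days before readout.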

SMILES: NC(=O)C(=Cn1cnc(-c2cc(C(F)(F)F)cc(C(F)(F)F)c2)n1)c1cncnc1 + CN1CCN(c2cc(C(=O)Nc3cc4cc(-c5cnn(C)c5)ccc4cn3)ccn2)CC1
- IC50 [1]: < 0.00949 µM
- IC50 [2]: < 0.00949 µM
- IC50 [3]: < 0.00949 µM
- IC50 [4]: < 0.00949 µM
- IC50 [5]: < 0.00949 µM
- IC50 [6]: < 0.00949 µM
- viability, T/C (second compound 0.0316 µM, first compound 0.00949 µM): 21.1%
- viability, T/C (second compound 0.0316 µM, first compound 0.03 µM): 19.4%
- viability, T/C (second compound 0.0316 µM, first compound 0.0949 µM): 8.87%
- viability, T/C (second compound 0.0316 µM, first compound 0.3 µM): 2.37%
- viability, T/C (second compound 0.0316 µM, first compound 0.949 µM): 1.3%
- viability, T/C (second compound 0.0316 µM, first compound 3 µM): 0.87%
- viability, T/C (second compound 0.1 µM, first compound 0.00949 µM): 7.2%
- viability, T/C (second compound 0.1 µM, first compound 0.03 µM): 4.72%
- viability, T/C (second compound 0.1 µM, first compound 0.0949 µM): 1.8%
- viability, T/C (second compound 0.1 µM, first compound 0.3 µM): 0.15%
- viability, T/C (second compound 0.1 µM, first compound 0.949 µM): 0.19%
- viability, T/C (second compound 0.1 µM, first compound 3 µM): 0.22%
- viability, T/C (second compound 0.316 µM, first compound 0.00949 µM): 0.46%
- viability, T/C (second compound 0.316 µM, first compound 0.03 µM): 0.1%
- viability, T/C (second compound 0.316 µM, first compound 0.0949 µM): 0.07%
- viability, T/C (second compound 0.316 µM, first compound 0.3 µM): 0.05%
- viability, T/C (second compound 0.316 µM, first compound 0.949 µM): 0.06%
- viability, T/C (second compound 0.316 µM, first compound 3 µM): 0.17%
- viability, T/C (second compound 1 µM, first compound 0.00949 µM): 0.06%
- viability, T/C (second compound 1 µM, first compound 0.03 µM): 0.09%
- viability, T/C (second compound 1 µM, first compound 0.0949 µM): 0.13%
- viability, T/C (second compound 1 µM, first compound 0.3 µM): 0.1%
- viability, T/C (second compound 1 µM, first compound 0.949 µM): 0.12%
- viability, T/C (second compound 1 µM, first compound 3 µM): 0.29%
- viability, T/C (second compound 3.16 µM, first compound 0.00949 µM): 0.06%
- viability, T/C (second compound 3.16 µM, first compound 0.03 µM): 0.16%
- viability, T/C (second compound 3.16 µM, first compound 0.0949 µM): 0.19%
- viability, T/C (second compound 3.16 µM, first compound 0.3 µM): 0.12%
- viability, T/C (second compound 3.16 µM, first compound 0.949 µM): 0.17%
- viability, T/C (second compound 3.16 µM, first compound 3 µM): 0.21%
- viability, T/C (second compound 10 µM, first compound 0.00949 µM): 0.02%
- viability, T/C (second compound 10 µM, first compound 0.03 µM): 0.09%
- viability, T/C (second compound 10 µM, first compound 0.0949 µM): 0.13%
- viability, T/C (second compound 10 µM, first compound 0.3 µM): 0.1%
- viability, T/C (second compound 10 µM, first compound 0.949 µM): 0.17%
- viability, T/C (second compound 10 µM, first compound 3 µM): 0.11%

SMILES: CC(CO)NC(=O)c1cc(-c2ccc(Cl)cc2)nn(-c2cnn(C)c2)c1=O (stereo unspecified) + CN1CCN(c2cc(C(=O)Nc3cc4cc(-c5cnn(C)c5)ccc4cn3)ccn2)CC1
- IC50 [1]: 3.78 µM
- IC50 [2]: < 0.0316 µM
- IC50 [3]: < 0.0316 µM
- IC50 [4]: < 0.0316 µM
- IC50 [5]: < 0.0316 µM
- IC50 [6]: < 0.0316 µM
- viability, T/C (second compound 0.0316 µM, first compound 0.0316 µM): 62.9%
- viability, T/C (second compound 0.0316 µM, first compound 0.1 µM): 71.7%
- viability, T/C (second compound 0.0316 µM, first compound 0.316 µM): 61.2%
- viability, T/C (second compound 0.0316 µM, first compound 1 µM): 78.3%
- viability, T/C (second compound 0.0316 µM, first compound 3.16 µM): 53.1%
- viability, T/C (second compound 0.0316 µM, first compound 10 µM): 33%
- viability, T/C (second compound 0.1 µM, first compound 0.0316 µM): 18.3%
- viability, T/C (second compound 0.1 µM, first compound 0.1 µM): 15.8%
- viability, T/C (second compound 0.1 µM, first compound 0.316 µM): 16.9%
- viability, T/C (second compound 0.1 µM, first compound 1 µM): 15.6%
- viability, T/C (second compound 0.1 µM, first compound 3.16 µM): 15.4%
- viability, T/C (second compound 0.1 µM, first compound 10 µM): 14.6%
- viability, T/C (second compound 0.316 µM, first compound 0.0316 µM): 2.63%
- viability, T/C (second compound 0.316 µM, first compound 0.1 µM): 2.2%
- viability, T/C (second compound 0.316 µM, first compound 0.316 µM): 2.62%
- viability, T/C (second compound 0.316 µM, first compound 1 µM): 2.67%
- viability, T/C (second compound 0.316 µM, first compound 3.16 µM): 2.25%
- viability, T/C (second compound 0.316 µM, first compound 10 µM): 2.13%
- viability, T/C (second compound 1 µM, first compound 0.0316 µM): 0.11%
- viability, T/C (second compound 1 µM, first compound 0.1 µM): 0.12%
- viability, T/C (second compound 1 µM, first compound 0.316 µM): 0.15%
- viability, T/C (second compound 1 µM, first compound 1 µM): 0.11%
- viability, T/C (second compound 1 µM, first compound 3.16 µM): 0.11%
- viability, T/C (second compound 1 µM, first compound 10 µM): 0.13%
- viability, T/C (second compound 3.16 µM, first compound 0.0316 µM): 0.18%
- viability, T/C (second compound 3.16 µM, first compound 0.1 µM): 0.27%
- viability, T/C (second compound 3.16 µM, first compound 0.316 µM): 0.22%
- viability, T/C (second compound 3.16 µM, first compound 1 µM): 0.18%
- viability, T/C (second compound 3.16 µM, first compound 3.16 µM): 0.29%
- viability, T/C (second compound 3.16 µM, first compound 10 µM): 0.19%
- viability, T/C (second compound 10 µM, first compound 0.0316 µM): 0.11%
- viability, T/C (second compound 10 µM, first compound 0.1 µM): 0.14%
- viability, T/C (second compound 10 µM, first compound 0.316 µM): 0.17%
- viability, T/C (second compound 10 µM, first compound 1 µM): 0.21%
- viability, T/C (second compound 10 µM, first compound 3.16 µM): 0.23%
- viability, T/C (second compound 10 µM, first compound 10 µM): 0.19%

SMILES: NC(=O)C(=Cn1cnc(-c2cc(C(F)(F)F)cc(C(F)(F)F)c2)n1)c1cncnc1
- viability, T/C (compound 0.00949 µM): 69%
- viability, T/C (compound 0.03 µM): 23.2%
- viability, T/C (compound 0.0949 µM): 17.2%
- viability, T/C (compound 0.3 µM): 8.78%
- viability, T/C (compound 0.949 µM): 3.63%
- viability, T/C (compound 3 µM): 2.66%
- IC50 (curve of compound): 0.0157 µM
